{
  "source": "patent US12606719B2",
  "about": "“Methods and compositions comprising biodegradable cyanoacrylates” (FEMASYS, INC., priority 2017, dated 2026)",
  "origin": "cited, not measured here",
  "conditions": "versus cyanoacrylates that degrade by chain scission",
  "data": [
    {"substance": "methoxypropyl cyanoacrylate", "values": [
      {"measurement": "hydrophilicity", "result": "more hydrophilic"}
    ]}
  ]
}
